We go through four compounds from ChEMBL document CHEMBL1201862, “PubChem BioAssay data set” (2004).

What all share (experiment): inhibition of tumour cell growth, NCI panel, 48 h
The test system of experiment [1] is SW-620.
The subject of experiment [2] is UACC-257.
Experiment [3] deals with RXF 393.
The subject of experiment [4] is IGROV-1.
The test system of experiment [5] is SF-295.
The subject of experiment [6] is BT-549.
Experiment [7] has as its system K562.
In experiment [8] the test system is HOP-92.
Experiment [9] relates to NCI-H226.
Experiment [10] has as its system HCT-15.
The subject of experiment [11] is MDA-MB-231.
The test system of experiment [12] is RPMI-8226.
In experiment [13] the test system is HCC 2998.
Experiment [14] concerns NCI/ADR-RES.
Experiment [15] has as its system HCT-116.
Experiment [16] concerns ACHN.
The subject of experiment [17] is SN12C.
In experiment [18] the test system is SNB-75.
The test system of experiment [19] is CCRF-CEM.

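These data come from cells grown in 96-well plates and exposed to compound for 48 hours at five concentrations. GI50 = concentration required for 50% inhibition of growth.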 Active and inactive are the calls of the source. Cut-off read from the data, not from the text of the source: active = GI50 up to about 1.1 µM and inactive = higher.

`O=C1c2ccccc2C(=O)c2c(NC(=O)c3ccc4c5c(ncnc35)-c3ccccc3C4=O)cccc21`: the GI50 in experiment [1] was > 100 µM (inactive); in experiment [2], > 100 µM (inactive); in [3], 22.6 µM (inactive); in experiment [4], > 100 µM (inactive); in experiment [5], 23.4 µM (inactive); in experiment [6], 48 µM (inactive). Moreover, the GI50 was > 100 µM (inactive) in experiment [7]; 53.3 µM (inactive) in experiment [8]; > 100 µM (inactive) in experiment [9]; over 100 µM in [10]; 32.4 µM (inactive) in experiment [11]; > 100 µM (inactive) in experiment [12]. The GI50 in experiment [13] was > 100 µM (inactive); in experiment [14] it was > 100 µM (inactive); in experiment [15], > 100 µM (inactive); in experiment [16], > 100 µM (inactive); in experiment [17], > 100 µM (inactive); in experiment [18], 18.7 µM (inactive).

In the case of `CCSC1=N/C(=C\c2ccc(N(C)C)cc2)C(Cl)=N1`, the GI50 in [1] is > 100 µM (inactive); in experiment [2], > 100 µM (inactive); in [3] it was 25.2 µM (inactive); in experiment [4], > 100 µM (inactive); in [5], > 100 µM (inactive); in [6], > 100 µM (inactive). The GI50 in [8] is > 100 µM (inactive); in experiment [19], > 100 µM (inactive); in experiment [9] it was > 100 µM (inactive); in experiment [10] it was over 100 µM; in [11], > 100 µM (inactive); in [12] it was 59.3 µM (inactive). In addition, the GI50 in experiment [13], in experiment [14], in experiment [15], in experiment [16], in [17] and in [18] was > 100 µM (inactive) throughout.

In the case of `COc1ccc(/C=C2\C(=O)N(C3OC(COC(C)=O)C(OC(C)=O)C(OC(C)=O)C3OC(C)=O)c3ccccc3N=C2N)cc1` (configuration not stated), the GI50 is 30.7 µM (inactive) in [1]; 24.5 µM (inactive) in experiment [2]; 21.8 µM (inactive) in [3]; 27.3 µM (inactive) in experiment [4]; 21.9 µM (inactive) in experiment [5]; 23.9 µM (inactive) in experiment [6]. Further, the GI50 was 11.9 µM (inactive) in experiment [7]; 71.4 µM (inactive) in [8]; 16.8 µM (inactive) in experiment [19]; 12.9 µM in experiment [10]; 43.5 µM (inactive) in [11]; 16 µM (inactive) in experiment [12]. Also, the GI50 in experiment [13] was 21.8 µM (inactive); in experiment [14] it was 20.5 µM (inactive); in experiment [15] it was 19.7 µM (inactive); in [16], 38.5 µM (inactive); in experiment [17], 36.9 µM (inactive); in experiment [18] it was 23.2 µM (inactive).

Regarding `CN(C)C(=S)S` [SODIUM DIMETHYLCARBAMODITHIOATE], the GI50 was > 59.7 µM (inactive) in [1]; > 100 µM (inactive) in [2]; 83.9 µM (inactive) in experiment [3]; 2.23 µM (inactive) in experiment [4]; > 80.2 µM (inactive) in experiment [5]; > 100 µM (inactive) in experiment [6]. Further, the GI50 in experiment [7] was 2.44 µM (inactive); in experiment [8] it was > 100 µM (inactive); in experiment [9], > 100 µM (inactive); in experiment [10], over 76 µM; in experiment [11], 43.6 µM (inactive); in [12] it was 17.5 µM (inactive). Besides, the GI50 in experiment [13] was 20.1 µM (inactive); in experiment [14] it was > 100 µM (inactive); in experiment [15] it was 25.5 µM (inactive); in experiment [16] it was > 71 µM (inactive); in experiment [17], 80 µM (inactive); in experiment [18] it was > 85.5 µM (inactive).
